According to US6083981A, “Sulfonamide substituted aspartic acid interleukin-1β converting enzyme inhibitors” (Warner-Lambert Company, priority 1999, dated 2000):

Legend:
[1] = system: human peripheral blood mononuclear cells (PBMCs); test: PBMC viability (MTT), compound toxicity; assay type: cell-based
Description: (§1) Further evidence that compounds of Formula I, II, and III are inhibitors of ICE is provided by their ability to inhibit IL-1β production in human peripheral blood mononuclear cells (PBMCs) as described herein. PBMCs are isolated from heparinized blood by centrifugation over a ficoll cushion, then washed three times with phosphate-buffered saline. PBMCs are suspended in a medium containing RPMI 1640 with glutamine, penicillin, streptomycin, and 2% human AB serum, then plated at 10^6 cells per well in 96 well flat bottom plates. PBMCs are stimulated overnight with 10 ng/mL of lipopolysaccharide (LPS, E. Coli strain 0111:B4; Calbiochem) in the presence or absence of a compound of Formula I. Medium is harvested and the level of mature IL-1β was determined using an ELISA kit from R & D Systems. Compound inhibition is assessed by determining the concentration of agent which reduces IL-1β levels by 50%. Cells were cultured for an additional four hours in the presence of 3-(4,5-dimethylthiazol-2-yl)-2,5-diphenyltetrazolium bromide (MTT) to determine viability. Compound toxicity can, therefore, be assessed by determining the concentration of agent which kills 50% of the cells (IC50).

ICE [2] = molecular target: T1, ICE (Homo sapiens, UniProt P29466); test: ICE Colorimetric Dose-Response (IC50) Assay; assay type: biochemical; conditions: 24 nM ICE, 60 min preincubation, 50 μM Ac-Tyr-Val-Ala-Asp-pNA, pH 7.5, 25° C
T1 sequence (P29466 120-297 limits assumed): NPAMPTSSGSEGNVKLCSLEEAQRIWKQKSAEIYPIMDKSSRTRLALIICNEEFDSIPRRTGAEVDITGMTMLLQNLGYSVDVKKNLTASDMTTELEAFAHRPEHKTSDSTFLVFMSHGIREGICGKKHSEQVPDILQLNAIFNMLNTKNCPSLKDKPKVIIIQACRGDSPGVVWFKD
T1 sequence (P29466 317-404 limits assumed): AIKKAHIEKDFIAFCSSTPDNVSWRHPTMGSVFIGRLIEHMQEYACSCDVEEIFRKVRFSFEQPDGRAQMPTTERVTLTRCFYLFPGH
Procedure: Aliquots of each dilution are transferred to a microtitre plate in triplicate.
(§2) ICE enzyme is diluted to approximately 24 nM in HGE buffer (100 mM Hepes pH 7.5, 0.5 mM EDTA, 20% glycerol, 0.1% Bovine Serum Albumin (BSA), and activated by adding dithiothreitol (DTT) to a final concentration of 5 mM. The activated enzyme is then aliquoted into wells containing inhibitor or vehicle, and the plate is preincubated for 60 minutes at ambient temperature. Substrate (Ac--Tyr--Val--Ala--Asp--pNA) is added to each well to a final concentration of 50 μM, and plates are placed in the microtitre plate-reader thermostated to 25° C. Beginning 5 minutes after addition of substrate, absorbance (405 nm) of wells is monitored for 1 hour, and activity is calculated as the mean rate of change in absorbance during this interval.

[3] = system: IL-1β production in human peripheral blood mononuclear cells (PBMCs); test: PBMC Cellular Assay, inhibition of LPS-stimulated IL-1β production; assay type: cell-based; conditions: mature IL-1β by ELISA, 10 ng/mL LPS overnight, 2% human AB serum
Description: as §1

ICE [4] = molecular target: T1, ICE; test: ICE inhibition, fluorometric Ki (Ac-Tyr-Val-Ala-Asp-AMC substrate); assay type: biochemical; conditions: 0.24 nM ICE, 15 μM Ac-Tyr-Val-Ala-Asp-AMC, reversible competitive model
Procedure: Substrate hydrolysis is monitored for 300 seconds by observing the fluorescence of released AMC using excitation at 380 nm and emission at 460 nm. Mean rates of substrate hydrolysis are evaluated by linear-regression analysis of the fluorescence vs time traces.

Ich-2 (Caspase-4) = molecular target: T2, Ich-2 (Caspase-4) (Homo sapiens, UniProt P49662); test: Ich-2 (Caspase-4) Colorimetric Dose-Response (IC50) Assay; assay type: biochemical; conditions: 64 nM enzyme, 60 μM Ac-Leu-Glu-Val-Asp-pNA
T2 sequence (P49662 81-270 limits assumed): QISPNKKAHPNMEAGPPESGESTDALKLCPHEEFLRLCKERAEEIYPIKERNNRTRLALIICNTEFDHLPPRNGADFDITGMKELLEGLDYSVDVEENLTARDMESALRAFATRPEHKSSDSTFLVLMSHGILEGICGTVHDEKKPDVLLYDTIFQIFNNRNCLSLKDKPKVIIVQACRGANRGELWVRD
T2 sequence (P49662 290-377 limits assumed): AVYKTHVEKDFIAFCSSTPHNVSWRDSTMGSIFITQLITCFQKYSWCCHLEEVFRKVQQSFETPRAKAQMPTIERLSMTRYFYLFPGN
Procedure: as §2
Inhibition of Ich-2 enzyme is assayed as described above for ICE, except that enzyme is used at 64 nM, and 60 μM of the Ich-2-specific substrate Ac--Leu--Glu--Val--Asp--pNA is used instead of the ICE substrate Ac--Tyr--Val--Ala--Asp--pNA.

[5] = PBMC viability (MTT), compound toxicity; assay type: cell-based; conditions: human, MTT viability, additional four hours, concentration which kills 50% of the cells, read-out: PBMC TC50
Description: as §1

Molecule | IC50 (ICE [2]) [µM] | Ki (ICE [4]) [µM] | IC50 (Ich-2 (Caspase-4)) [µM] | CC50 [1] [µM] | IC50 [3] [µM] | CC50 [5] [µM] | IC50 ([3]; PBMC) [µM]
3-(2-Sec-Butoxy-Benzenesulfonylamino)-4-Oxo-Butyric Acid [Example 27] | 35 | 3.9 | 118 | > 100 | > 100 | – | –
CCc1ccccc1Oc1ccccc1S(=O)(=O)NC(C=O)CC(=O)O (stereo not shown) [Example 18, 3-[2-(2-Ethyl-Phenoxy)-Benzenesulfonylamino]-4-Oxo-Butyric Acid] | 14 | 2 | 87 | – | – | > 100 | 80
CCCCC(C)c1ccc(Oc2ccccc2S(=O)(=O)NC(C=O)CC(=O)O)cc1 (stereo not shown) [Example 21, 3-{2-[4-(1-Methyl-Pentyl)-Phenoxy]-Benzenesulfonylamino}-4-Oxo-Butyric Acid] | 6.1 | 0.6 | 31 | – | – | 70 | 33
O=CC(CC(=O)O)NS(=O)(=O)c1ccccc1OCc1ccccc1 (stereo not shown) [Example 23, 3-(2-Benzyloxy-Benzenesulfonylamino)-4-Oxo-Butyric Acid] | 11 | 0.8 | 97 | – | – | > 100 | 60
Cc1cccc(Oc2ccccc2S(=O)(=O)NC(C=O)CC(=O)O)c1C (stereo not shown) [Example 24, 3-[2-(2,3-Dimethyl-Phenoxy)-Benzenesulfonylamino]-4-Oxo-Butyric Acid] | 13 | 1 | 122 | – | – | > 100 | 73
CCC(CC)COc1ccccc1S(=O)(=O)NC(C=O)CC(=O)O (stereo not shown) [Example 29] | 8.6 | 0.3 | 215 | – | – | > 100 | 75
Cc1cccc(-c2ccccc2S(=O)(=O)NC(C=O)CC(=O)O)c1 (stereo not shown) [Example 35, 3-(3'-Methyl-Biphenyl-2-Sulfonylamino)-4-Oxo-Butyric Acid] | 37 | 31 | 341 | – | – | > 100 | > 100
Cc1cccc(S(=O)(=O)NC(C=O)CC(=O)O)c1-c1ccccc1 (stereo not shown) [Example 37, 3-(6-Methyl-Biphenyl-2-Sulfonylamino)-4-Oxo-Butyric Acid] | 34 | 1.9 | 151 | – | – | > 100 | > 100
Cc1cccc(S(=O)(=O)NC(C=O)CC(=O)O)c1Oc1ccccc1 (stereo not shown) [Example 38, 3-(3-Methyl-2-Phenoxy-Benzenesulfonylamino)-4-Oxo-Butyric Acid] | 11.2 | 0.67 | 76 | – | – | > 100 | 85
O=CC(CC(=O)O)NS(=O)(=O)c1ccccc1Sc1ccccc1 (stereo not shown) [Example 39, 4-Oxo-3-[2-Phenylthio-Benzenesulfonylamino]-Butyric Acid] | 21 | 1.1 | 25 | – | – | > 100 | > 100
O=CC(CC(=O)O)NS(=O)(=O)c1ccccc1Nc1ccccc1 (stereo not shown) [Example 40, 4-Oxo-3-[2-N-Phenyl-Benzenesulfonylamino]-Butyric Acid] | 44 | 10 | 370 | – | – | > 100 | 95
Cc1cccc(S(=O)(=O)NC(C=O)CC(=O)O)c1Oc1ccc(C(C)C)cc1 (stereo not shown) [Example 41, 3-[2-(4-Isopropylphenoxy)-3-Methylbenzenesulfonylamino]-4-Oxo-Butyric Acid] | 12 | 1.5 | 9.2 | – | – | > 100 | 45
Cc1ccc(Oc2ccccc2)c(S(=O)(=O)NC(C=O)CC(=O)O)c1 (stereo not shown) [Example 44, 3-(5-Methyl-2-Phenoxy-Benzenesulfonylamino)-4-Oxo-Butyric Acid] | 41 | 2.2 | 199 | – | – | > 100 | > 100

These reach a lower IC50 (ICE [2]). Values come first.

IC50 (ICE [2]) [µM] | Ki (ICE [4]) [µM] | IC50 (Ich-2 (Caspase-4)) [µM] | Molecule | CC50 [1] [µM] | IC50 [3] [µM] | CC50 [5] [µM] | IC50 ([3]; PBMC) [µM]
4.4 | 0.3 | 17 | O=CC(CC(=O)O)NS(=O)(=O)c1ccccc1Oc1ccc(-c2ccccc2)cc1 (stereo not shown) [Example 20, 3-[2-(Biphenyl-4-Yloxy)-Benzenesulfonylamino]-4-Oxo-Butyric Acid] | – | – | > 100 | 40
3.5 | 0.13 | 28 | O=CC(CC(=O)O)NS(=O)(=O)c1ccccc1Oc1ccc2ccccc2c1 (stereo not shown) [Example 36, 3-[2-(Naphthalen-2-Yloxy)-Benzenesulfonylamino]-4-Oxo-Butyric Acid] | – | – | > 100 | 50
2.2 | 0.5 | 4 | CCC(C)c1ccc(Oc2ccccc2S(=O)(=O)NC(C=O)CC(=O)O)cc1 (stereo not shown) [Example 19, 3-[2-(4-Sec-Butyl-Phenoxy)-Benzenesulfonylamino]-4-Oxo-Butyric Acid] | – | – | > 100 | 23
1.7 | 18 | 14 | Cc1ccc(S(=O)(=O)NC(C=O)CC(=O)O)c(Oc2ccccc2)c1 (stereo not shown) [Example 45, 3-(4-Methyl-2-Phenoxy-Benzenesulfonylamino)-4-Oxo-Butyric Acid] | – | – | > 100 | 70
1.1 | 0.3 | 57 | Cc1ccccc1Oc1c(C)cccc1S(=O)(=O)NC(C=O)CC(=O)O (stereo not shown) [Example 42, 3-[2-(2-Methylphenoxy)-3-Methylbenzenesulfonylamino]-4-Oxo-Butyric Acid] | – | – | > 100 | 38
1 | 0.1 | 4.6 | CCC(C)c1ccc(Oc2ccccc2S(=O)(=O)NC(C=O)CC(=O)O)cc1C (stereo not shown) [Example 28, 3-[2-(4-Sec-Butyl-3-Methyl-Phenoxy)-Benzenesulfonylamino]-4-Oxo-Butyric Acid] | – | – | > 100 | 18
0.4 | 0.062 | 2.3 | O=CC(CC(=O)O)NS(=O)(=O)c1ccccc1OCCc1cccc2ccccc12 (stereo not shown) [Example 31] | – | – | > 100 | 8
